According to PMC10591915 (ACS chemical biology, 2023):
Like-named read-outs stand apart in the source and are kept apart here.

Legend:
[1] = values as provided by PubChem; ref PubChem; cited from earlier work
human CRBP1 [2] = target: T1, human CRBP1 (Homo sapiens, UniProt P09455); assay: fluorescence atROL-replacement assay (Ki determination); type: binding
T1 sequence (P09455 1-135): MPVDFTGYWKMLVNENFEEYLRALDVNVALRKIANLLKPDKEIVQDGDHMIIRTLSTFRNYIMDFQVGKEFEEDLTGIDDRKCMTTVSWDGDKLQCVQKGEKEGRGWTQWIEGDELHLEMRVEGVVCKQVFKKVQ

human CRBP1 [3] = target: T1, human CRBP1; settings: abn-CBD reference value; cited from earlier work
albino mice = settings: cited from earlier work

SMILES | Ki (human CRBP1 [2]) | log P [1] | Ki (human CRBP1 [3]) | protection against light-induced retinal damage (albino mice)
COCC1CCN(Cc2nc(C(c3ccccc3)c3ccccc3)no2)CC1 [inhibitor 3, 3-benzhydryl-5-[[4-(methoxymethyl)piperidin-1-yl]methyl]-1,2,4-oxadiazole] |  | 4.0 |  | 
C=C(C)[C@@H]1CCC(C)=C[C@H]1c1c(O)cc(O)cc1CCCCC [abn-CBD, 4-[(1R,6R)-3-Methyl-6-prop-1-en-2-ylcyclohex-2-en-1-yl]-5-pentylbenzene-1,3-diol] |  | 6.5 | 0.067 µM | protecting against this condition in albino mice
COc1ccc(S(=O)(=O)N2CCC(O)(CO)CC2)c2c1CCCC2 [inhibitor 4, 4-(hydroxymethyl)-1-[(4-methoxy-5,6,7,8-tetrahydronaphthalen-1-yl)sulfonyl]piperidin-4-ol] |  | 1.4 |  | 

More lines, main results first:

Ki (human CRBP1 [2]) | SMILES | log P [1] | Ki (human CRBP1 [3]) | protection against light-induced retinal damage (albino mice)
10.7 ± 4.5 µM | Cc1ccc(C2(c3noc(CN(C)Cc4cnn(C)c4)n3)CCCC2)cc1 [inhibitor 6, N-methyl-N-[[3-[1-(4-methylphenyl)cyclopentyl]-1,2,4-oxadiazol-5-yl]methyl]-1-(1-methylpyrazol-4-yl)methanamine] | 3.5 |  | 
10.6 ± 2.5 µM | CC(c1cccs1)N(C)Cc1nc(C(c2ccccc2)c2ccccc2)no1 (stereo not shown) [inhibitor 5, N-[(3-benzhydryl-1,2,4-oxadiazol-5-yl)methyl]-N-methyl-1-thiophen-2-ylethanamine] | 5.0 |  | 
7.1 ± 2.7 µM | CCN(CCn1cccn1)Cc1nc(C2(c3ccc(C)cc3)CCCC2)no1 [inhibitor 2, N-ethyl-N-[[3-[1-(4-methylphenyl)cyclopentyl]-1,2,4-oxadiazol-5-yl]methyl]-2-pyrazol-1-ylethanamine] | 4.0 |  | 
9 ± 4.1 µM | Cc1ccc(C2(c3noc(CN(C)Cc4cccs4)n3)CCCC2)cc1 [inhibitor 1, N-methyl-N-[[3-[1-(4-methylphenyl)cyclopentyl]-1,2,4-oxadiazol-5-yl]methyl]-1-thiophen-2-ylmethanamine] | 4.9 |  | 
